Data taken from patent publication US9409966B2, “Glucagon-like peptide-1 derivatives and their pharmaceutical use” (priority 2007, dated 2016).

Biological target: human serum albumin (HSA) (Homo sapiens, UniProt P02768)
Test: Albumin binding affinity, competition scintillation proximity assay (SPA)
Procedure: Streptavidin-SPA beads (GE Healthcare RPNQ0009) were incubated with biotinylated HSA for 5 hours. The beads were washed with buffer to remove unbound HSA. […] After 20 hours of gentle rocking at room temperature the plates were centrifuged and counted on a TopCounter.

Sequence of human serum albumin (HSA) (P02768 25-609): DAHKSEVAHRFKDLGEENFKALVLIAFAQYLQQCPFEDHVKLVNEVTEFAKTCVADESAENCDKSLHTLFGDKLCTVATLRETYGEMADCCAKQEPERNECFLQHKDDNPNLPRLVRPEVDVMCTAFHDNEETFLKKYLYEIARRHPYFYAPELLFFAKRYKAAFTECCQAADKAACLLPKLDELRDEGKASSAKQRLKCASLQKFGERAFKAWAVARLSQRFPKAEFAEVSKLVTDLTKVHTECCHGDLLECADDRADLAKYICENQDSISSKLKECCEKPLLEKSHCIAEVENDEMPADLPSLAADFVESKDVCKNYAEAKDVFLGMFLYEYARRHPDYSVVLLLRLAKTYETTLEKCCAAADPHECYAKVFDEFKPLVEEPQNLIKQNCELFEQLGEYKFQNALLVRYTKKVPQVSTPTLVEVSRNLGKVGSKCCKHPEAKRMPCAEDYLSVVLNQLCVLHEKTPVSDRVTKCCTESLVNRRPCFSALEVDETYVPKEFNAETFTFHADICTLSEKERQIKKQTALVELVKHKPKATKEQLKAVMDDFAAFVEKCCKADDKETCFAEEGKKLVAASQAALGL

EC50 [nM]	Structure (SMILES)
1500 to 2000	CC[C@H](C)[C@H](NC(=O)[C@H](Cc1cccc(C(F)(F)F)c1)NC(=O)[C@H](CCC(=O)O)NC(=O)[C@H](CCCNC(=N)N)NC(=O)[C@H](C)NC(=O)[C@H](C)NC(=O)[C@H](CCC(N)=O)NC(=O)[C@H](CCC(=O)O)NC(=O)[C@H](CCC(=O)O)NC(=O)[C@H](CC(C)C)NC(=O)[C@H](Cc1ccc(O)cc1)NC(=O)[C@H](CO)NC(=O)[C@H](CO)NC(=O)[C@@H](NC(=O)[C@H](CC(=O)O)NC(=O)[C@H](CO)NC(=O)[C@@H](NC(=O)[C@H](Cc1ccccc1)NC(=O)[C@@H](NC(=O)CNC(=O)[C@H](CCC(=O)O)NC(=O)[C@H](C)NC(=O)CCc1c[nH]cn1)[C@@H](C)O)[C@@H](C)O)C(C)C)C(=O)N[C@@H](C)C(=O)N[C@@H](Cc1c[nH]c2ccccc12)C(=O)N[C@@H](CC(C)C)C(=O)N[C@H](C(=O)N[C@@H](CCCNC(=N)N)C(=O)NCC(=O)N[C@@H](CCCNC(=N)N)C(=O)N[C@@H](CCCCNC(=O)COCCOCCNC(=O)COCCOCCNC(=O)C[C@@H](NC(=O)C1CCN(C(=O)CCCCCCCCCCCCCCCCC(=O)O)CC1)C(=O)O)C(N)=O)C(C)C [Example 3, N-epsilon37-[2-(2-[2-(2-[2-(2-((R)-3-[1-(17-Carboxyheptadecanoyl)piperidin-4-ylcarbonylamino]3-carboxypropionylamino)ethoxy)ethoxy]acetylamino)ethoxy]ethoxy)acetyl][DesaminoHis 7,Glu22,Arg26,Arg34,Phe(m-CF3)28]GLP-1-(7-37)amide]
200 to 400	CC[C@H](C)[C@H](NC(=O)[C@H](Cc1ccccc1)NC(=O)[C@H](CCC(=O)O)NC(=O)[C@H](CCCNC(=N)N)NC(=O)[C@H](C)NC(=O)[C@H](C)NC(=O)[C@H](CCC(N)=O)NC(=O)[C@H](CCC(=O)O)NC(=O)[C@H](CCC(=O)O)NC(=O)[C@H](CC(C)C)NC(=O)[C@H](Cc1ccc(O)cc1)NC(=O)[C@H](CO)NC(=O)[C@H](CO)NC(=O)[C@@H](NC(=O)[C@H](CC(=O)O)NC(=O)[C@H](CO)NC(=O)[C@@H](NC(=O)[C@H](Cc1ccccc1)NC(=O)[C@@H](NC(=O)CNC(=O)[C@H](CCC(=O)O)NC(=O)C(C)(C)NC(=O)[C@@H](N)Cc1c[nH]cn1)[C@@H](C)O)[C@@H](C)O)C(C)C)C(=O)N[C@@H](CCCCNC(=O)COCCOCCNC(=O)COCCOCCNC(=O)C[C@H](NC(=O)C1CCN(C(=O)CCCCCCCCCCCCCCCCCCC(=O)O)CC1)C(=O)O)C(=O)N[C@@H](Cc1c[nH]c2ccccc12)C(=O)N[C@@H](CC(C)C)C(=O)N[C@H](C(=O)N[C@@H](CCCCN)C(=O)NCC(=O)N[C@@H](CCCNC(=N)N)C(=O)NCC(=O)O)C(C)C [Example 4, N-epsilon30{2-[2-(2-{2-[2-((S)-3-carboxy-3-{[1-(19-carboxynonadecanoyl)piperidine-4-carbonyl]amino}propionylamino)ethoxy]ethoxy}acetylamino)ethoxy]ethoxy}acetyl [Aib8,Glu22,Arg26,Lys30]GLP-1-(7-37)]
